Data as given in ChEMBL document CHEMBL1759853, “Imidazo[1,5-a]pyrazines: orally efficacious inhibitors of mTORC1 and mTORC2” (Bioorg Med Chem Lett, 2011).
Active and inactive are the calls of the source. The calls are words filed in the database; no cut-off is given here.

Key:
[1] = Metabolic stability in mouse liver microsome assessed as extraction ratio; type: ADME; conditions: liver microsomes
cells = conditions: Homo sapiens, HeLa
in vitro = conditions: human, liver microsomes
Description: Metabolic stability in human liver microsome assessed as extraction ratio

[2] = biological target: Tyrosine-protein kinase ABL1 (Homo sapiens, UniProt P00519); experiment: Inhibition of Abl
[3] = biological target: RAF proto-oncogene serine/threonine-protein kinase (Homo sapiens, UniProt P04049); experiment: Inhibition of cRaf
Insulin receptor = Insulin receptor (Homo sapiens, UniProt P06213); experiment: Inhibition of IR
[4] = biological target: T1, 3-phosphoinositide-dependent protein kinase 1 (Homo sapiens, UniProt O15530); experiment: Inhibition of PDK1
T1 sequence (O15530 whole entry): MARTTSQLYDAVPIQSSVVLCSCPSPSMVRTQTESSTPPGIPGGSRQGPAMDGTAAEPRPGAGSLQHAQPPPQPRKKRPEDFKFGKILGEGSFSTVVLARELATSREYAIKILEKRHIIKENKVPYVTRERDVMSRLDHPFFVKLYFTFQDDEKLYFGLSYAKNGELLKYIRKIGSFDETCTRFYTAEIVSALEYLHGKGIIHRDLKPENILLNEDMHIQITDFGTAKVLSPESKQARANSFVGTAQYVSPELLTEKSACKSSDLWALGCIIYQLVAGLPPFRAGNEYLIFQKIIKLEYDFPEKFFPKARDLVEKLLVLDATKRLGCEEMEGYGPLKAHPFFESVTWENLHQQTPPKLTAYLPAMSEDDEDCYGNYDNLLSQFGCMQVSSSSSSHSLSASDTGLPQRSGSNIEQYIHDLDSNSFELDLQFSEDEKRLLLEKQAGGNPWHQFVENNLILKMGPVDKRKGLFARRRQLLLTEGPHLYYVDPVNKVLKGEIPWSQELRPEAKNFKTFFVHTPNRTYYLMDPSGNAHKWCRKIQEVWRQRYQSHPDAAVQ

[5] = biological target: Phosphatidylinositol 4,5-bisphosphate 3-kinase catalytic subunit gamma isoform (Homo sapiens, UniProt P48736); experiment: Inhibition of PI3Kgamma
[6] = biological target: Proto-oncogene tyrosine-protein kinase Src (Homo sapiens, UniProt P12931); experiment: Inhibition of Src
[7] = Inhibition of mTORC2 dependent P4E-BP1 T37/46 phosphorylation in human MDA-MB-231 cells; type: cell-based
[8] = Inhibition of mTORC2 dependent pAkT S473 phosphorylation in human BT-20 cells; type: cell-based
MDA-MB-231 [9] = experiment: Antiproliferative activity against human MDA-MB-231 cells; type: functional, cell-based
[10] = Permeability of the compound by PAMPA method; type: ADME; conditions: read-out: permeability
[11] = Aqueous solubility of the compound at pH 7.4; type: physicochemical
[12] = Clearance in mouse at 1 mg/kg, iv; type: ADME, organism-based; set-up: dose 1 mg/kg, route intravenous; conditions: in vivo
[13] = Half life in mouse at 1 mg/kg, iv; type: ADME, organism-based; set-up: dose 1 mg/kg, route intravenous; conditions: in vivo
[14] = AUC (0 to infinity) in mouse at 1 mg/kg, iv; type: ADME, organism-based; set-up: time infinity, dose 1 mg/kg, route intravenous; conditions: plasma
[15] = Volume of distribution at steady-state in mouse at 1 mg/kg, iv; type: ADME, organism-based; set-up: dose 1 mg/kg, route intravenous; conditions: in vivo, read-out: Vdss
[16] = Cmax in mouse at 20 mg/kg, po; type: ADME, organism-based; set-up: dose 20 mg/kg, route oral; conditions: in vivo
[17] = AUC (0 to infinity) in mouse at 20 mg/kg, po; type: ADME, organism-based; set-up: time infinity, dose 20 mg/kg, route oral; conditions: plasma
[18] = Bioavailability in mouse at 20 mg/kg, po; type: ADME, organism-based; conditions: in vivo
[19] = Plasma protein binding in mouse; type: ADME, cell-free; conditions: read-out: PPB (converted)
Mus musculus [20] = experiment: […] mouse bearing human MDA-MB-231 cells assessed as inhibition of 4E-BP1 T37/46 phosphorylation at 100 mg/kg, po after 4 hrs; type: functional, organism-based; set-up: dose 100 mg/kg
Mus musculus [21] = experiment: […] mouse bearing human MDA-MB-231 cells assessed as inhibition of 4E-BP1 T37/46 phosphorylation at 100 mg/kg, po after 8 hrs; type: functional, organism-based; set-up: dose 100 mg/kg
[22] = biological target: T2, Insulin-like growth factor 1 receptor (Homo sapiens, UniProt P08069); experiment: Inhibition of IGF-1R
[23] = biological target: Dual specificity mitogen-activated protein kinase kinase 1 (Homo sapiens, UniProt Q02750); experiment: Inhibition of MEK1
[24] = biological target: T2, Insulin-like growth factor 1 receptor; experiment: Inhibition of IGF-1R by ELISA
MDA-MB-231 [25] = experiment: Inhibition of mTORC2 dependent P4E-BP1 T37/46 phosphorylation in human MDA-MB-231 cells at 20 uM; type: cell-based
BT-20 = experiment: Inhibition of mTORC2 dependent pAkT S473 phosphorylation in human BT-20 cells at 20 uM; type: cell-based
[26] = biological target: Vascular endothelial growth factor receptor 2 (Homo sapiens, UniProt P35968); experiment: Inhibition of KDR
[27] = Clearance in mouse at 5 mg/kg, iv; type: ADME, organism-based; set-up: dose 5 mg/kg, route intravenous; conditions: in vivo
[28] = Half life in mouse at 5 mg/kg, iv; type: ADME, organism-based; set-up: dose 5 mg/kg, route intravenous; conditions: in vivo
[29] = AUC (0 to infinity) in mouse at 5 mg/kg, iv; type: ADME, organism-based; set-up: dose 5 mg/kg, route intravenous, time infinity; conditions: plasma
[30] = Volume of distribution at steady-state in mouse at 5 mg/kg, iv; type: ADME, organism-based; set-up: dose 5 mg/kg, route intravenous; conditions: in vivo, read-out: Vdss
MDA-MB-231 [31] = experiment: Antitumor activity against human MDA-MB-231 cells xenografted in CD-1 mouse at 100 mg/kg, po QD for 14 days; type: functional
Mus musculus [32] = experiment: Toxicity in CD-1 mouse xenografted with human MDA-MB-231 cells assessed as reduction in body weight at 100 mg/kg, po QD for 14 days; type: organism-based; set-up: dose 100 mg/kg, route oral; conditions: in vivo, 336 h
[33] = biological target: Epidermal growth factor receptor (Homo sapiens, UniProt P00533)

T2 sequence (P08069 31-736 limits assumed): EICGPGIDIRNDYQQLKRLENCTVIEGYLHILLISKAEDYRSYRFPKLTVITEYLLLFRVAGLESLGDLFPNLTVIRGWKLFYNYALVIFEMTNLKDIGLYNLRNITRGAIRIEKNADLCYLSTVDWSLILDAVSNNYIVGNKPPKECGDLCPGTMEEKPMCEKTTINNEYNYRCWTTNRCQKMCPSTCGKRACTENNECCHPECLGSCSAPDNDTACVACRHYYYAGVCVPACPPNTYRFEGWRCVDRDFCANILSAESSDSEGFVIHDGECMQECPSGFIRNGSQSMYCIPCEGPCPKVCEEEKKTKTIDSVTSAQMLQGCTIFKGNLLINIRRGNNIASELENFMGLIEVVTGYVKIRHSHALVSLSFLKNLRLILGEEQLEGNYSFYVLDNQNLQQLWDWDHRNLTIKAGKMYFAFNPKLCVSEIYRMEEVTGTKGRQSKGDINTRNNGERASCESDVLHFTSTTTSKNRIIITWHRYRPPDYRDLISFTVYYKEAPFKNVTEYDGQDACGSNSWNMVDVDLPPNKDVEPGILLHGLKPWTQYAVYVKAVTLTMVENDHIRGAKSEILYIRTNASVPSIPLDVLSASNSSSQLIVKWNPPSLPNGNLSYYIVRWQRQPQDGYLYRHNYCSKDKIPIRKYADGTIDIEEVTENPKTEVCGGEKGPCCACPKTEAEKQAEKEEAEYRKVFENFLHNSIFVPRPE
T2 sequence (P08069 741-1367 limits assumed): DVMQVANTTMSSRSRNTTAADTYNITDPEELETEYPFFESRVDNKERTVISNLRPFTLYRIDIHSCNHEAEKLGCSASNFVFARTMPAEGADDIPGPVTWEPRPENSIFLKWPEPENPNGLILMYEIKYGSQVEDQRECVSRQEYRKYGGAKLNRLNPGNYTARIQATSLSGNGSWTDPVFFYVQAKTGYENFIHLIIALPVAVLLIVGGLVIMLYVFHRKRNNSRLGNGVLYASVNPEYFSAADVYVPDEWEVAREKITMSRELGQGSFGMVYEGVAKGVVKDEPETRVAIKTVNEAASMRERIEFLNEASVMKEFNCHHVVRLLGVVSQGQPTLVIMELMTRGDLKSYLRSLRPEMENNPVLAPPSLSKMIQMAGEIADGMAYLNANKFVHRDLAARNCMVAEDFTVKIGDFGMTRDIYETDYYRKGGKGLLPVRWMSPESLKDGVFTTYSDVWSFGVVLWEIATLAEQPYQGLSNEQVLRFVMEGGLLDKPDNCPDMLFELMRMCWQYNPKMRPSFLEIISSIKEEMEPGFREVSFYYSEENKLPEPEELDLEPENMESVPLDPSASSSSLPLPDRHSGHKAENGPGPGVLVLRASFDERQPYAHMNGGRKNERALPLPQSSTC
Proto-oncogene tyrosine-protein kinase Src, sequence (P12931 2-536 limits assumed): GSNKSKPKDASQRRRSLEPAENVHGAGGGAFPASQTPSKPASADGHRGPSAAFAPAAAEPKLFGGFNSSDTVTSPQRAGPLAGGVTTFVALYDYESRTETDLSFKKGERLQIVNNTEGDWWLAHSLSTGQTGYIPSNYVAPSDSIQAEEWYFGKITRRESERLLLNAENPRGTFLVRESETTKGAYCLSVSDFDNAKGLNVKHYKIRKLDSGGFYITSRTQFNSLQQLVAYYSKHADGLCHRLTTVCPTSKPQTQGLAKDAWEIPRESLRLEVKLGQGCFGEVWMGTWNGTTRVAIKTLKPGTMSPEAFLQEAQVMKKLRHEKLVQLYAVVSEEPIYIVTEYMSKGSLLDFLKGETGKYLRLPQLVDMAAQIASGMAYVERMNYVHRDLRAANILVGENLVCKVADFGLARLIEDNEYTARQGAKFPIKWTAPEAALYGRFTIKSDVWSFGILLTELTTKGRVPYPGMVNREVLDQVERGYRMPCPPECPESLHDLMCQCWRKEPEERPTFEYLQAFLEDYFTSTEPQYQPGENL
RAF proto-oncogene serine/threonine-protein kinase, sequence (P04049 whole entry): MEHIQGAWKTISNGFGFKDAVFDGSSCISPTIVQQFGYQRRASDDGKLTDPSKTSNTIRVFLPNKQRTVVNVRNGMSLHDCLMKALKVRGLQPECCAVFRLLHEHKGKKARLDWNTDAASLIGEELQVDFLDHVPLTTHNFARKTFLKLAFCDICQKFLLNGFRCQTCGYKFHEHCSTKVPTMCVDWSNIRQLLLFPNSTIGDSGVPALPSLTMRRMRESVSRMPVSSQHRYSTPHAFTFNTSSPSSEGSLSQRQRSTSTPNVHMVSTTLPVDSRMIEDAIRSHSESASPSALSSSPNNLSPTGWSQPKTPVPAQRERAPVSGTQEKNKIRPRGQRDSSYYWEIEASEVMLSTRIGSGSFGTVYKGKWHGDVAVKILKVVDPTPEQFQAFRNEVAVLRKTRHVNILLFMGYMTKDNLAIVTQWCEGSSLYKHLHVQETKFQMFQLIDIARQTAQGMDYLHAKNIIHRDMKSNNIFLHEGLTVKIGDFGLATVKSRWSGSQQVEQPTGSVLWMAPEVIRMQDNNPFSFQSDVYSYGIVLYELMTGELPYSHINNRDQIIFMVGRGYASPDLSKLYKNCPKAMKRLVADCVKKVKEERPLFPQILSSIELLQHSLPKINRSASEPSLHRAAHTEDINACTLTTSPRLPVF
Tyrosine-protein kinase ABL1, sequence (P00519 whole entry): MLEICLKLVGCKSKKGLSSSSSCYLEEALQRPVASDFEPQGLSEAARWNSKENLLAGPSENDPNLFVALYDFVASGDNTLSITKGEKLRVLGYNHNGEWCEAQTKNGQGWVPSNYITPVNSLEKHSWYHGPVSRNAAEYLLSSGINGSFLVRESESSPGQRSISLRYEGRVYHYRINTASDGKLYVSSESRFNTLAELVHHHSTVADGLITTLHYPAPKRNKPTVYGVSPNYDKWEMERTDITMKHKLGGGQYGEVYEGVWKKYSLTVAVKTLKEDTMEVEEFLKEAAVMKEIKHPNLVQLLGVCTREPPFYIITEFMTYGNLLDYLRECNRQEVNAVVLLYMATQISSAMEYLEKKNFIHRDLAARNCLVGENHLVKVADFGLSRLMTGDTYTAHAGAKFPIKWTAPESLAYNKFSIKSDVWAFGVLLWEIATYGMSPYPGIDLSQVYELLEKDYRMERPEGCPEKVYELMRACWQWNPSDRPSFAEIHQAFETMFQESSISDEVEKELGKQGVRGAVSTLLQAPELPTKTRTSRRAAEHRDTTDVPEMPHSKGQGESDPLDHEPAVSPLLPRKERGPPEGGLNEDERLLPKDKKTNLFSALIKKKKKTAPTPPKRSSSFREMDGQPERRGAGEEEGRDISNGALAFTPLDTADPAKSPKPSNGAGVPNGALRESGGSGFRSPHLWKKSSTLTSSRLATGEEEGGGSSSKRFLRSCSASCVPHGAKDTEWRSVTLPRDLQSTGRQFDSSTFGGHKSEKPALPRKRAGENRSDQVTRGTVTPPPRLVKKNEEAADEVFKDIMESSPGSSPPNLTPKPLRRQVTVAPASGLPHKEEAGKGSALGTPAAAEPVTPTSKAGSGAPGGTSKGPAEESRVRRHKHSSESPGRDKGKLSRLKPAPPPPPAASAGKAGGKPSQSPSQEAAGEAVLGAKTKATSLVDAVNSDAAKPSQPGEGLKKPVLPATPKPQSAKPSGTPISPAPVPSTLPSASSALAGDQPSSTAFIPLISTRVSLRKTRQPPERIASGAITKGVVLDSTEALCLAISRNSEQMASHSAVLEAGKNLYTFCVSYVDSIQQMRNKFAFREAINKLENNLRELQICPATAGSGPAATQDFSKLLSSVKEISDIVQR
Dual specificity mitogen-activated protein kinase kinase 1, sequence (Q02750 whole entry): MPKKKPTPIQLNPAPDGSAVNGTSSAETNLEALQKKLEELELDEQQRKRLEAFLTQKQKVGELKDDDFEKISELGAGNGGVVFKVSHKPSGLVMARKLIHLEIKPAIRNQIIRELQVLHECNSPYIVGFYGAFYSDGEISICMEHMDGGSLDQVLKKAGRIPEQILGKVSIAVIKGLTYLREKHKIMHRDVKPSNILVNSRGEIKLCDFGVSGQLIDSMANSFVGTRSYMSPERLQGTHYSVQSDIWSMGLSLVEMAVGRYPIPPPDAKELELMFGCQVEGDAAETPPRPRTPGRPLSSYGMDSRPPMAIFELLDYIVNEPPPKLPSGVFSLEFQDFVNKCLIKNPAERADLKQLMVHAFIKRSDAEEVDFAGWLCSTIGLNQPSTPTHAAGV

## NC[C@H]1CC[C@H](c2nc(-c3cc4ccccc4[nH]3)c3c(N)nccn32)CC1
[1]
  hepatic extraction ratio: 0.28
cells
  IC50: 1000 nM
In vitro
  hepatic extraction ratio: 0.34

## Nc1nccn2c(C3CCC3)nc(-c3ccc4[nH]ccc4c3)c12
cells
  IC50: 2480 nM

## Nc1nccn2c(C3CCC3)nc(-c3cnc4ccccc4c3)c12
cells
  IC50: 2350 nM

## Nc1nccn2c1c(-c1cc3ccccc3[nH]1)nc2[C@H]1C[C@@H](CO)C1
[1]
  hepatic extraction ratio: 0.79
cells
  IC50: 320 nM
In vitro
  hepatic extraction ratio: 0.7

## CN1CCN([C@H]2C[C@@H](c3nc(-c4cc5ccccc5[nH]4)c4c(N)nccn43)C2)CC1
[1]
  hepatic extraction ratio: 0.2
cells
  IC50: 4000 nM
In vitro
  hepatic extraction ratio: 0.44

## CC(=O)NC[C@H]1CC[C@H](c2nc(-c3cc4ccccc4[nH]3)c3c(N)nccn32)CC1
[2]
  IC50: 1960 nM
[3]
  IC50: 180 nM
Insulin receptor
  IC50: 22600 nM
[4]
  IC50: 11200 nM
[5]
  IC50: > 30000 nM
[6]
  IC50: 5300 nM
[7]
  IC50: 7400 nM
[8]
  IC50: 1260 nM
MDA-MB-231 [9]
  IC50: 7400 nM
[10]
  Papp: > 25 ×10⁻⁶ cm/s
[11]
  solubility: > 100 µM
[12]
  clearance: 2 mL/min/kg
[13]
  half-life: 1.6 h
[14]
  AUC(0-inf): 6880 ng·h/mL
[15]
  Vd: 0.2 L/kg
[16]
  Cmax: 30.6 µM
[17]
  AUC(0-inf): 73800 ng·h/mL
[18]
  bioavailability: 54%
[19]
  fraction unbound: 0.097
Mus musculus [20]
  Activity: Active
Mus musculus [21]
  Activity: Active
[22]
  IC50: 2720 nM
[23]
  IC50: 960 nM
cells
  IC50: 210 nM

## CC(=O)N1CCC(c2nc(-c3cc4ccccc4[nH]3)c3c(N)nccn23)CC1
[1]
  hepatic extraction ratio: 0.43
cells
  IC50: 690 nM
In vitro
  hepatic extraction ratio: 0.44

## Nc1nccn2c(C3CCC3)nc(-c3ccc4occc4c3)c12
cells
  IC50: > 10000 nM

## CC(=O)N1CCN([C@H]2C[C@@H](c3nc(-c4cc5ccccc5[nH]4)c4c(N)nccn43)C2)CC1
[1]
  hepatic extraction ratio: 0.59
cells
  IC50: 350 nM
In vitro
  hepatic extraction ratio: 0.58

## Nc1nccn2c(C3CCC3)nc(-c3ccc4cccnc4c3)c12
[24]
  IC50: > 10000 nM
cells
  IC50: 900 nM

## CN1CCN(C(=O)N2CCC(c3nc(-c4cc5ccccc5[nH]4)c4c(N)nccn34)CC2)CC1
cells
  IC50: 1370 nM

## Nc1nccn2c1c(-c1cc3ccccc3[nH]1)nc2[C@H]1C[C@@H](O)C1
[1]
  hepatic extraction ratio: 0.6
cells
  IC50: 370 nM
In vitro
  hepatic extraction ratio: 0.74

## CS(=O)(=O)NC[C@H]1CC[C@H](c2nc(-c3cc4ccccc4[nH]3)c3c(N)nccn32)CC1
cells
  IC50: 410 nM

## Nc1nccn2c(C3CCC3)nc(-c3cccc(O)c3)c12
cells
  IC50: 1970 nM

## Nc1nccn2c(C3CCC3)nc(-c3ccc4ncccc4c3)c12
cells
  IC50: 7150 nM

## Nc1nccn2c(C3CCNCC3)nc(-c3cc4ccccc4[nH]3)c12
[1]
  hepatic extraction ratio: 0.64
cells
  IC50: > 10000 nM
In vitro
  hepatic extraction ratio: 0.18

## Nc1nccn2c1c(-c1cc3ccccc3[nH]1)nc2[C@H]1CC[C@H](CO)CC1
[1]
  hepatic extraction ratio: 0.67
cells
  IC50: 220 nM
In vitro
  hepatic extraction ratio: 0.74

## Nc1nccn2c(C3CCC3)nc(-c3c[nH]c4ccccc34)c12
cells
  IC50: > 10000 nM

## Nc1nccn2c(C3CCC3)nc(-c3ccc4cc[nH]c4c3)c12
cells
  IC50: 3120 nM

## Nc1nccn2c(C3CCC3)nc(-c3ccc4ccccc4c3)c12
cells
  IC50: 1360 nM

## Nc1nccn2c(C3CCC3)nc(-c3cc4ccccc4s3)c12
cells
  IC50: 130 nM

## Nc1nccn2c(C3CCC3)nc(-c3cc4ccccc4[nH]3)c12
[1]
  hepatic extraction ratio: 0.94
cells
  IC50: 460 nM
In vitro
  hepatic extraction ratio: 0.92

## Nc1nccn2c1c(-c1cc3ccccc3[nH]1)nc2[C@H]1CC[C@H](CNC(=O)c2ccoc2)CC1
[1]
  hepatic extraction ratio: 0.76
cells
  IC50: 90 nM
In vitro
  hepatic extraction ratio: 0.78

## Nc1nccn2c(C3CCC3)nc(-c3ccc4sccc4c3)c12
cells
  IC50: 1300 nM

## Nc1nccn2c1c(-c1cc3ccccc3[nH]1)nc2[C@H]1CC[C@H](CNC=O)CC1
[1]
  hepatic extraction ratio: 0.51
cells
  IC50: 150 nM
In vitro
  hepatic extraction ratio: 0.64

## CO[C@H]1C[C@@H]2CC[C@@H](C)[C@@](O)(O2)C(=O)C(=O)N2CCCC[C@H]2C(=O)O[C@H]([C@H](C)C[C@@H]2CC[C@@H](O)[C@H](OC)C2)CC(=O)[C@H](C)/C=C(\C)[C@@H](O)[C@@H](OC)C(=O)[C@H](C)C[C@H](C)/C=C/C=C/C=C/1C
MDA-MB-231 [25]
  inhibition: 40%
BT-20
  inhibition: inactive

## Nc1nccn2c(C3CCC3)nc(-c3cc4ccccc4o3)c12
cells
  IC50: 260 nM

## Nc1nccn2c(C3CCC3)nc(-c3ccc4nccnc4c3)c12
cells
  IC50: 2600 nM

## Nc1nccn2c1c(-c1cc3ccccc3[nH]1)nc2[C@H]1CC[C@H](CNC(=O)C2CCC2)CC1
[1]
  hepatic extraction ratio: 0.79
cells
  IC50: 170 nM
In vitro
  hepatic extraction ratio: 0.74

## Nc1nccn2c(C3CCC3)nc(-c3ccc4ccc(-c5ccccc5)nc4c3)c12
cells
  IC50: > 9000 nM

## CN(C)C(=O)N1CCC(c2nc(-c3cc4ccccc4[nH]3)c3c(N)nccn23)CC1
[1]
  hepatic extraction ratio: 0.67
[2]
  IC50: > 10000 nM
[3]
  IC50: 1700 nM
Insulin receptor
  IC50: > 30000 nM
[26]
  IC50: > 10000 nM
[4]
  IC50: > 30000 nM
[5]
  IC50: > 30000 nM
[6]
  IC50: 770 nM
[7]
  IC50: 7800 nM
[8]
  IC50: 1380 nM
MDA-MB-231 [9]
  IC50: 9300 nM
[10]
  Papp: > 25 ×10⁻⁶ cm/s
[11]
  solubility: > 100 µM
[27]
  clearance: 7 mL/min/kg
[28]
  half-life: 0.9 h
[29]
  AUC(0-inf): 12100 ng·h/mL
[30]
  Vd: 0.4 L/kg
[16]
  Cmax: 35.9 µM
[17]
  AUC(0-inf): 49400 ng·h/mL
[18]
  bioavailability: 102%
[19]
  fraction unbound: 0.119
Mus musculus [20]
  Activity: Active
Mus musculus [21]
  Activity: Active
MDA-MB-231 [31]
  Activity: 94%
Mus musculus [32]
  Activity: Toxic
[22]
  IC50: > 30000 nM
[23]
  IC50: > 10000 nM
[33]
  IC50: > 10000 nM
cells
  IC50: 120 nM
In vitro
  hepatic extraction ratio: 0.68

## Nc1nccn2c(C3CCC3)nc(-c3cccc4ccccc34)c12
cells
  IC50: > 10000 nM

## Nc1nccn2c(C3CCC3)nc(-c3cc4cccnc4[nH]3)c12
cells
  IC50: 400 nM
